Values of other authors, collected in US20060275504A1, “Methods and compositions for augmenting cancer chemotherapeutic agents” (TTY BIOPHARM COMPANY LIMITED, priority 2005, published 2006).

Columns and labels:
[1] = tested on: MDA-MB-231
[2] = tested on: MCF-7

arsenic trioxide
complete remission (CR) rate (intravenously 10 mg/d, patients with relapsed acute promyelocytic leukemia): 90%

S1[As]2S[As]3S[As]2S[As]13 [As4S4, tetraarsenic tetraslfide]
complete remission rates (arsenic-containing substances other than arsenic trioxide (Wang Z. Y. 2001)): 84.9%

O=C1O[C@H]([C@@H](O)CO)C(O)=C1O [Ascorbic acid]
concentration exhibiting cytotoxic activity ([1]; MDA-MB-231, ascorbic acid alone): 10^2-10^3 μM
effect on cytotoxicity of DOX, DDP and TX ([1]; MDA-MB-231, ascorbic acid at non-cytotoxic (1 μM) and moderately cytotoxic (10^2 μM) concentration): improved the cytotoxicity of DOX, DDP and TX significantly
concentration exhibiting cytotoxic activity ([2]; MCF-7, ascorbic acid alone): 10^2-10^3 μM
effect on cytotoxicity of DOX, DDP and TX ([2]; MCF-7, ascorbic acid at non-cytotoxic (1 μM) and moderately cytotoxic (10^2 μM) concentration): improved the cytotoxicity of DOX, DDP and TX significantly
